Where two headings read alike, the source gives them in different places.
Assays:
[1] = tested on: test strain 923 pPvra-lux (USA300 MRSA); assay: Primary screen, relative growth in presence of oxacillin; conditions: compound 10 μM with oxacillin 2 μg/mL, absorbance 24 h, <0.50 = dead cells = hit
[2] = tested on: vraSR promoter (Pvra-lux reporter in strain 923); assay: Primary screen, relative luminescence (vraSR expression)
[3] = primary screen, compound 10 μM with oxacillin 2 μg/mL, <0.50 = vraSR repressed = hit

Structure (SMILES)	RG avg (relative growth) [1]	RL avg (relative luminescence) [2, 3]	RL avg (relative luminescence) [2]
COc1cccc(-c2nnc(NC(=O)c3ccc(S(=O)(=O)N(C)C4CCCCC4)cc3)o2)c1 [F0559-158]	0.03	−0.07	–
O=C(Nc1nnc(-c2ccccn2)o1)c1c(F)cccc1F [F0608-895]	0.03	−0.06	–
CSc1ccc(-c2nnc(NC(=O)c3ccc(S(=O)(=O)N(C)Cc4ccccc4)cc3)o2)cc1 [F2645-405]	0.29	0.57	–
O=C(Nc1nnc(-c2ccc(Br)cc2)o1)c1cc(Cl)sc1Cl [F2518-504]	0.01	0.00	–
O=C(Nc1nnc(-c2ccco2)o1)c1ccc(-c2ccccc2)cc1 [F0608-410]	−0.07	−0.07	–
O=C(Nc1nnc(-c2ccc3c(c2)OCCO3)o1)c1cccc(Cl)c1 [F0608-123]	−0.02	−0.04	–
CC(C)n1nccc1C(=O)Nc1nnc(-c2cc(Cl)sc2Cl)o1 [F1374-2902]	0.00	0.33	–
CCN(CC)S(=O)(=O)c1ccc(C(=O)Nc2nnc(-c3cc(C)ccc3C)o2)cc1 [F2518-298]	−0.02	0.06	–
Cc1ccc(-c2nnc(NC(=O)c3ccc(F)cc3)o2)cc1C [F2767-12]	0.02	0.01	–
O=C(Nc1nnc(-c2cc(Cl)sc2Cl)o1)c1cccs1 [F1374-2664]	0.00	0.32	–
Cc1ccc(C)c(-c2nnc(NC(=O)c3ccc4ncsc4c3)o2)c1 [F2518-414]	0.01	−0.02	–
Cc1ccccc1C(=O)Nc1nnc(-c2ccc3c(c2)CCCC3)o1 [F0608-614]	0.08	−0.05	–
O=C(Nc1nnc(-c2cccs2)o1)c1sc2ccccc2c1Cl [F1374-988]	0.03	0.37	–
COc1cccc2cc(C(=O)Nc3nnc(-c4ccc(Cl)cc4Cl)o3)oc12 [F2518-1563]	0.00	−0.16	–
O=C(Nc1nnc(-c2cccnc2)o1)c1cccc(Br)c1 [F0608-950]	−0.01	−0.14	–
COc1cccc2cc(C(=O)Nc3nnc(-c4ccc(Br)s4)o3)oc12 [F5093-196]	−0.01	−0.01	–
COc1ccccc1-c1nnc(NC(=O)c2ccc(S(=O)(=O)N(C)c3ccccc3)cc2)o1 [F0559-127]	−0.05	−0.11	–
O=C(Nc1nnc(C2=COCCO2)o1)c1cc(Cl)cc(Cl)c1 [F0608-258]	−0.05	−0.06	–
O=C(Nc1nnc(-c2ccc(Cl)s2)o1)c1nc2ccccc2s1 [F1374-1083]	0.02	0.49	–
Cc1ccc(C)c(-c2nnc(NC(=O)c3ccc(S(=O)(=O)N4CCCc5ccccc54)cc3)o2)c1 [F2518-342]	0.00	−0.02	–

Structure (SMILES)	RG avg (relative growth) [1]	RL avg (relative luminescence) [2, 3]	RL avg (relative luminescence) [2]
O=C(Nc1nnc(-c2cc(Cl)ccc2Cl)o1)c1ccccc1 [F2518-2]	−0.02	0.01	–
CC1CN(S(=O)(=O)c2ccc(C(=O)Nc3nnc(-c4ccc(Cl)s4)o3)cc2)CC(C)O1 (stereo not drawn) [F0559-377]	−0.08	−0.09	–
O=C(Nc1nnc(-c2ccc3c(c2)CCCC3)o1)c1cccc(C(F)(F)F)c1 [F0608-575]	−0.02	−0.09	–
COc1cc(-c2nnc(NC(=O)c3ccc(S(=O)(=O)N(C)c4ccccc4)cc3)o2)cc(OC)c1OC [F0559-307]	−0.04	−0.08	–
Cc1ccc(C)c(-c2nnc(NC(=O)c3ccc(S(=O)(=O)N4CC(C)OC(C)C4)cc3)o2)c1 (stereo not drawn) [F2518-334]	0.00	−0.04	–
CCOc1cc(-c2nnc(NC(=O)C(c3ccccc3)c3ccccc3)o2)cc(OCC)c1OCC [F2517-165]	0.31	−0.07	–
COc1cc(OC)cc(-c2nnc(NC(=O)c3ccc(Cl)s3)o2)c1 [F1374-666]	0.05	0.34	–
O=C(Nc1nnc(-c2ccc3c(c2)CCCC3)o1)c1ccc(Cl)cc1Cl [F0608-661]	0.11	−0.04	–
O=C(Nc1nnc(-c2ccc(C(F)(F)F)cc2)o1)c1cc2ccccc2o1 [F1374-2134]	0.20	0.38	–
O=C(Nc1nnc(-c2cc3ccccc3o2)o1)c1ccc(F)cc1 [F2273-390]	0.27	0.20	–
CC1CCCCN1S(=O)(=O)c1ccc(C(=O)Nc2nnc(C3COc4ccccc4O3)o2)cc1 (stereo not drawn) [F0608-741]	−0.02	−0.04	–
CC1(C)COCN1S(=O)(=O)c1ccc(C(=O)Nc2nnc(-c3ccc(Cl)s3)o2)cc1 [F0559-390]	−0.06	−0.11	–
O=C(Nc1nnc(-c2cc(Cl)ccc2Cl)o1)c1ccc(C(=O)c2ccccc2)cc1 [F2518-24]	−0.01	0.06	–
COc1ccc(Cc2nnc(NC(=O)c3ccc(S(=O)(=O)N(C)Cc4ccccc4)cc3)o2)cc1 [F2368-617]	−0.04	−0.07	–
O=C(Nc1nnc(C2COc3ccccc3O2)o1)c1ccc(S(=O)(=O)N2CCc3ccccc3C2)cc1 (stereo not drawn) [F0608-728]	−0.02	−0.01	–
COc1cccc(-c2nnc(NC(=O)C(c3ccccc3)c3ccccc3)o2)c1 [F1374-379]	0.47	0.34	–
O=C(Nc1nnc(-c2cccs2)o1)c1ccc2c(c1)CCCC2 [F1374-1012]	0.16	0.49	–
CCCCN(C)S(=O)(=O)c1ccc(C(=O)Nc2nnc(-c3ccc(Br)s3)o2)cc1 [F5093-101]	−0.02	−0.04	–
CSc1ccccc1-c1nnc(NC(=O)c2cc(Cl)sc2Cl)o1 [F2645-67]	0.02	0.37	–
O=C(Nc1nnc(-c2ccco2)o1)c1ccc(S(=O)(=O)N2CCCc3ccccc32)cc1 [F0608-447]	−0.05	−0.02	–

Structure (SMILES)	RG avg (relative growth) [1]	RL avg (relative luminescence) [2, 3]	RL avg (relative luminescence) [2]
O=C(Nc1nnc(-c2ccc(Cl)s2)o1)c1ccc2ncsc2c1 [F1374-1151]	−0.02	0.35	–
COc1cccc(-c2nnc(NC(=O)c3cccc(Oc4ccccc4)c3)o2)c1 [F1374-396]	0.04	0.34	–
O=C(Nc1nnc(-c2ccc(F)cc2)o1)c1nc2ccccc2s1 [F1374-138]	0.00	0.40	–
CC(C)c1ccc(Cc2nnc(NC(=O)c3ccc4ncsc4c3)o2)cc1 [F2368-1143]	−0.01	−0.09	–
O=C(Nc1nnc(-c2cc(Cl)ccc2Cl)o1)c1cc(-c2ccccc2)nc2ccccc12 [F2518-55]	0.00	−0.02	–
Cc1ccc(C)c(-c2nnc(NC(=O)c3ccc(Br)s3)o2)c1 [F2518-329]	0.00	−0.11	–
COc1ccc(-c2nnc(NC(=O)c3ccc(S(=O)(=O)N(C)Cc4ccccc4)cc3)o2)c(OC)c1 [F0559-398]	−0.07	−0.11	–
COc1cc(-c2nnc(NC(=O)c3cccc(C(F)(F)F)c3)o2)cc(OC)c1OC [F2517-37]	−0.02	−0.06	–
COc1ccccc1-c1nnc(NC(=O)c2sc3ccccc3c2Cl)o1 [F1374-253]	0.04	0.32	–
O=C(Nc1nnc(-c2ccc(Br)s2)o1)c1ccc(Cl)s1 [F5093-40]	0.03	−0.02	–
O=C(Nc1nnc(-c2ccco2)o1)c1ccc(Oc2ccccc2)cc1 [F0608-491]	−0.06	−0.11	–
CCC1CCCCN1S(=O)(=O)c1ccc(C(=O)Nc2nnc(Cc3ccc(OC)cc3)o2)cc1 (stereo not drawn) [F2368-619]	−0.03	0.01	–
Cc1ccc(-c2nnc(NC(=O)c3nc4ccccc4s3)o2)c(C)c1 [F2518-183]	0.00	−0.04	–
CCOc1ccc(C(=O)Nc2nnc(-c3ccc(Cl)s3)o2)cc1 [F1374-1129]	0.00	–	0.47
O=C(Nc1nnc(-c2ccncc2)o1)c1ccc(-c2ccccc2)cc1 [F0608-1080]	0.03	−0.04	–
O=C(Nc1nnc(-c2ccc(Cl)s2)o1)c1ccccc1Oc1ccccc1 [F1374-1149]	−0.01	0.28	–
COc1cc(-c2nnc(NC(=O)c3cccc(Cl)c3)o2)cc(OC)c1OC [F2517-7]	−0.03	−0.11	–
Cc1ccc(C)c(-c2nnc(NC(=O)c3cccc(Cl)c3)o2)c1 [F2518-295]	0.01	−0.09	–
O=C(Nc1nnc(-c2ccc3c(c2)CCCC3)o1)c1ccc2c(c1)OCCO2 [F0608-601]	−0.05	−0.12	–
O=C(Nc1nnc(-c2ccc(Br)cc2)o1)c1ccc2c(c1)CCCC2 [F2518-517]	0.01	−0.08	–
